20 compounds from US4677104A, “Antipsychotic fused-ring pyridinylpiperazine derivatives” (Bristol-Myers Company, priority 1986, dated 1987) can be followed below.

Type in all cases: in vivo
Data set [1] deals with avoidance response to electrical shock in trained fasted rats. The data set is described as follows: Conditioned Avoidance Response (CAR). Particulars: Rattus norvegicus, po. The text has this:
Conditioned Avoidance Response (CAR) - measure of a
drug's tranquilizing activity as determined by its
attenuation of avoidance response to electrical shock
in trained fasted rats. cf: Albert, Pharmacologist, 4,

Data set [2] relates to neuroleptic-induced catalepsy in the rat. The data set is described as follows: Catalepsy Reversal. The following applies: po. An excerpt:
4. Catalepsy Reversal - measure of a drug's ability to
reverse neuroleptic-induced catalepsy in the rat.

Data set [3] in a line: Catalepsy (drug-induced catalepsy). Particulars: rat, in vivo, po, rats; read-out: Catalepsy Induction ED50. An excerpt: (§1) 3. Catalepsy - drug-induced catalepsy in rats is predic-
(§2) tive of potential extrapyramidal symptoms (EPS) in man.
(§3) of: Costall, et al., Psychopharmacologia, 34, 233-241

Data set [4] relates to apomorphine-induced stereotypy in rats. Kind of data set: Inhibition of Apomorphine-Induced (APO) Stereotypy. The following applies: Rattus norvegicus, po. An excerpt:
2. Inhibition of Apomorphine-Induced (APO) Stereotypy -
an assessment of blockade of dopaminergic activity in
rats as measured by attenuation of the behavioral
syndrome caused by the dopamine agonist, apomorphine.
of: Janssen, et al., Arzneimittel. Forsch., 17, 841

Data set [5] deals with drug-induced catalepsy in rats. The data set is described as follows: Catalepsy (drug-induced catalepsy). Particulars: p.o.
From the text: as §1, §2, §3

Turning to `Cc1cc2c(N3CCN(CCCC(O)c4ccc(F)cc4)CC3)nccc2o1` (centres unmarked) [Example 43], the ED50 was 23 mg/kg in data set [1] and above 20 mg/kg in data set [2].

For `O=C1CSCC(=O)N1CCCCN1CCN(c2nccc3sccc23)CC1` [Example 31], the ED50 in data set [1] is 32 mg/kg; in data set [2], above 20 mg/kg; in data set [3], above 128 mg/kg.

`O=C1SC2(CCCC2)C(=O)N1CCCCN1CCN(c2nccc3sc(Br)cc23)CC1` [Example 28]: the median effective dose (ED50) in data set [1] was above 100 mg/kg; in data set [2], 16 mg/kg; in data set [4] it was above 100 mg/kg.

Regarding `O=C1CCCC(=O)N1CCCCN1CCN(c2nccc3sccc23)CC1` [Example 58], the ED50 in data set [1] is 5 mg/kg; in data set [2], above 20 mg/kg; in data set [4], 56 mg/kg. Further, the “Catalepsy Induction ED50” value in data set [5] is “Inactive at 4 ×”.

As for `CC1(C)CC(=O)N(CCCCN2CCN(c3nccc4occc34)CC2)C(=O)C1` [Example 38], the ED50 in data set [1] was 4 mg/kg; in data set [2] it was above 20 mg/kg; in data set [3], 13 mg/kg; in data set [4] it was 7 mg/kg.

On to `O=C1SC2(CCCC2)C(=O)N1CCCCN1CCN(c2nccc3sccc23)CC1` [Example 26], for which the figures for the ED50 in data set [1], in data set [2] and in data set [4] were 12 mg/kg, above 20 mg/kg and 35 mg/kg, respectively.

Turning to `OC(CCCN1CCN(c2nccc3occc23)CC1)c1ccc(F)cc1` (centres unmarked) [Example 39], the ED50 is 3 mg/kg in data set [1], above 20 mg/kg in data set [2], 11 mg/kg in data set [3] and 5 mg/kg in data set [4].

As for `OC(CCCN1CCN(c2nccc3sccc23)CC1)c1ccc(F)cc1` (centres unmarked) [Example 27], the ED50 is 10 mg/kg in data set [1], above 20 mg/kg in data set [2], above 40 mg/kg in data set [3] and 9 mg/kg in data set [4].

Regarding `Cc1cc2c(N3CCN(CCCCN4C(=O)SC5(CCCC5)C4=O)CC3)nccc2o1` [Example 40], the ED50 was 28 mg/kg in data set [1] and 41 mg/kg in data set [4].

For `CC1(C)CC(=O)N(CCCCN2CCN(c3nccc4sc(Br)cc34)CC2)C(=O)C1` [Example 29], the ED50 was 65 mg/kg in data set [1] and above 20 mg/kg in data set [2].

Turning to `CC1(C)CC(=O)N(CCCCN2CCN(c3nccc4sccc34)CC2)C(=O)C1` [Example 24, 4,4-Dimethyl-1-[4-[4-(thieno[3,2-c]pyridin-4-yl)-1-piperazinyl]butyl]-2,6-piperidinedione], the ED50 is 6 mg/kg in data set [1], above 20 mg/kg in data set [2], above 24 mg/kg in data set [3] and 40 mg/kg in data set [4].

Turning to `O=C1SC2(CCCC2)C(=O)N1CCCCN1CCN(c2nccc3ccsc23)CC1` [Example 36], the ED50 in data set [1] is 43 mg/kg; in data set [2], above 20 mg/kg; in data set [4], 47 mg/kg.

Consider `Cn1ccc2c(N3CCN(CCCCN4C(=O)COCC4=O)CC3)nccc21` [Example 48], for which the ED50 in data set [1] is above 100 mg/kg; in data set [2], above 20 mg/kg; in data set [4], above 100 mg/kg.

In the case of `Cn1ccc2c(N3CCN(CCCCN4C(=O)CC(C)(C)CC4=O)CC3)nccc21` [Example 49], the ED50 in data set [1] is 67 mg/kg; in data set [2] it was above 20 mg/kg; in data set [4] it was above 100 mg/kg.

For the compound `O=C1CSCC(=O)N1CCCCN1CCN(c2nccc3occc23)CC1` [Example 42], the ED50 in data set [1] was 36 mg/kg; in data set [2] it was above 20 mg/kg; in data set [4] it was 63 mg/kg.

As to `O=C1SC2(CCCC2)C(=O)N1CCCCN1CCN(c2nccc3occc23)CC1` [Example 37], the ED50 was 9 mg/kg in data set [1], above 20 mg/kg in data set [2], 23 mg/kg in data set [3] and 18 mg/kg in data set [4].

As to `Cc1cc2c(N3CCN(CCCCN4C(=O)SC5(CCCC5)C4=O)CC3)nccc2s1` [Example 30], the ED50 in data set [1] was 35 mg/kg; in data set [2], above 20 mg/kg; in data set [3], above 142 mg/kg.

As for `O=C1COCC(=O)N1CCCCN1CCN(c2nccc3occc23)CC1` [Example 25, 4-[4-[4-(4-Furo[3,2-c]pyridinyl)-1-piperazinyl]butyl]-3,5-morpholinedione], the ED50 in data set [1] was 11 mg/kg; in data set [2], 2 mg/kg; in data set [3] it was above 46 mg/kg; in data set [4], 34 mg/kg.

For `Cc1cc2c(N3CCN(CCCCN4C(=O)CC(C)(C)CC4=O)CC3)nccc2o1` [Example 41], the ED50 in data set [1] is 14 mg/kg; in data set [2], above 20 mg/kg; in data set [3], 40 mg/kg; in data set [4], 22 mg/kg.

In the case of `Cn1ccc2c(N3CCN(CCCCN4C(=O)SC5(CCCC5)C4=O)CC3)nccc21` [Example 47], the ED50 was 60 mg/kg in data set [1], above 20 mg/kg in data set [2] and 61 mg/kg in data set [4].
